According to ChEMBL document CHEMBL1142850, “Hepatitis C virus NS3-4A serine protease inhibitors: use of a P2-P1 cyclopropyl alanine combination for improved potency” (Bioorg Med Chem Lett, 2005):
Numbered stars: 1 amine (or outer) side, 2 acyl side, 3 side chain; on linkers, the order of the positions; unused ones are H or OH. Square brackets hold non-standard residues; d marks the D form. Peptide text beside a SMILES is read from it. * marks the point of attachment. Isobutyloxycarbonyl = CC(C)COC(=O)*; Ala(cPr) = N[C@@H](CC1CC1)C(=O)O; X1 = CCCC(N[*:1])C(=O)C(=O)[*:2]; Ahp(2) = CCCCC[C@H](N)C(=O)O; Cba = N[C@@H](CC1CCC1)C(=O)O; Chg = N[C@H](C(=O)O)C1CCCCC1; Phg = N[C@H](C(=O)O)c1ccccc1; hLeu = CC(C)CC[C@H](N)C(=O)O

Target: NS3 (Hepatitis C virus, UniProt A3EZJ3)
Sequence (A3EZJ3 whole entry): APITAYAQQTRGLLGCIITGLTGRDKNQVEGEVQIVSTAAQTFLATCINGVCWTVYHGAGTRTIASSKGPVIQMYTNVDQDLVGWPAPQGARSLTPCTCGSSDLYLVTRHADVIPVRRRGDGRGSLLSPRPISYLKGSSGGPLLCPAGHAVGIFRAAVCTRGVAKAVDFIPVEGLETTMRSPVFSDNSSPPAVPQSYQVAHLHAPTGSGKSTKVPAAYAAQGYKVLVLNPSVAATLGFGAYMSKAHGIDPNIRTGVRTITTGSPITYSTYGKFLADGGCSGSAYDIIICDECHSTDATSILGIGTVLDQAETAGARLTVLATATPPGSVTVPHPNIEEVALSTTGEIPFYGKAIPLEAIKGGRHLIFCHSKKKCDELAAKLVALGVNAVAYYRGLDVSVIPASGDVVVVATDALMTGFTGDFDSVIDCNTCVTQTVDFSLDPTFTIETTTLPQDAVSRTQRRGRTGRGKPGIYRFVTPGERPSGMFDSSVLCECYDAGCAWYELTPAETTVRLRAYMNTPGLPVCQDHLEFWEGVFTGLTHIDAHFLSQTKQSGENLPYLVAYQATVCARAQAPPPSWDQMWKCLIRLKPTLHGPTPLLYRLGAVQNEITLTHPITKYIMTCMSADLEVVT
Assay: Inhibitory activity against HCV NS3 serine protease 1
Design: species or system Hepacivirus hominis

CCCC(NC(=O)[C@H](CC1SCCS1)NC(=O)[C@@H](NC(=O)OCC(C)C)C1CCCCC1)C(=O)C(=O)NCC(=O)N[C@H](C(=O)O)c1ccccc1 (some centres undefined) was tested, and the Ki was 90 nM.

In the case of CCCC(NC(=O)[C@H](CC1OCCO1)NC(=O)[C@@H](NC(=O)OCC(C)C)C1CCCCC1)C(=O)C(=O)NCC(=O)N[C@H](C(=O)O)c1ccccc1 (some centres undefined), the Ki is reported as 300 nM.

Work on CCCC(NC(=O)[C@H](CC1SCCCS1)NC(=O)[C@@H](NC(=O)OCC(C)C)C1CCCCC1)C(=O)C(=O)NCC(=O)N[C@H](C(=O)O)c1ccccc1 (some centres undefined) yielded a Ki of 250 nM.

CCCC(NC(=O)[C@H](CC1SCc2ccccc2CS1)NC(=O)[C@@H](NC(=O)OCC(C)C)C1CCCCC1)C(=O)C(=O)NCC(=O)N[C@H](C(=O)O)c1ccccc1 (some centres undefined) gave a Ki of 2300 nM.

Work on CCCC(NC(=O)[C@H](CC1OCCCO1)NC(=O)[C@@H](NC(=O)OCC(C)C)C1CCCCC1)C(=O)C(=O)NCC(=O)N[C@H](C(=O)O)c1ccccc1 (some centres undefined) yielded a Ki of 430 nM.

CCCCC[C@H](NC(=O)[C@@H](NC(=O)OCC(C)C)C1CCCCC1)C(=O)NC(CCC)C(=O)C(=O)NCC(=O)N[C@H](C(=O)O)c1ccccc1 (some centres undefined) (Isobutyloxycarbonyl-[Chg][Ahp(2)][X1]G[Phg]-OH) showed a Ki of 300 nM.

For CCCC(NC(=O)[C@H](CC1CC1)NC(=O)[C@@H](NC(=O)OCC(C)C)C1CCCCC1)C(=O)C(=O)NCC(=O)N[C@H](C(=O)O)c1ccccc1 (some centres undefined) (Isobutyloxycarbonyl-[Chg][Ala(cPr)][X1]G[Phg]-OH), the Ki was 50 nM.

Work on CCCC(NC(=O)[C@H](CC1CCC1)NC(=O)[C@@H](NC(=O)OCC(C)C)C1CCCCC1)C(=O)C(=O)NCC(=O)N[C@H](C(=O)O)c1ccccc1 (some centres undefined) (Isobutyloxycarbonyl-[Chg][Cba][X1]G[Phg]-OH) yielded a Ki of 140 nM.

For CCCC(NC(=O)[C@H](CCC(C)C)NC(=O)[C@@H](NC(=O)OCC(C)C)C1CCCCC1)C(=O)C(=O)NCC(=O)N[C@H](C(=O)O)c1ccccc1 (some centres undefined) (Isobutyloxycarbonyl-[Chg][hLeu][X1]G[Phg]-OH), the Ki was 310 nM.
